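Briefly, cells in 96-well plates were exposed to five compound concentrations for 48 h, and endpoints were estimated by linear interpolation. GI50 = concentration required for 50% inhibition of growth. TGI denotes the concentration required for complete inhibition of growth.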
How the values were obtained:
Assay in all cases: inhibition of tumour cell growth, NCI panel, 48 h
[1] = system: A498 renal
[2] = system: UO-31 renal
[3] = system: EKVX NSCLC
[4] = system: SNB-75 CNS
[5] = system: ACHN renal
[6] = system: SK-MEL-2 melanoma
[7] = system: U251 CNS
[8] = system: MOLT-4 leukemia
[9] = system: SNB-19 CNS
[10] = system: COLO 205 colon

`Cc1cn2c(/C=C3/C(=O)Nc4ccc(F)cc43)c(C)nc2s1` was tested, and the GI50 [1] was 9.59 µM, the TGI [1] was 25.8 µM and the GI50 [2] was 6.62 µM. For the same molecule, the TGI [2] was 40.8 µM, the GI50 [3] was 17.3 µM and the TGI [3] was over 50 µM. For the same molecule, the GI50 [4] was 3.76 µM, the TGI [4] was 15.6 µM and the GI50 [5] was 17.2 µM. For the same molecule, the TGI [5] was over 50 µM, the GI50 [6] was 8.76 µM and the TGI [6] was over 50 µM. It also gave a GI50 [7] of 5.96 µM, a TGI [7] of over 50 µM and a GI50 [8] of 5.02 µM. The TGI [8] was 33.2 µM, the GI50 [9] was 5.56 µM and the TGI [9] was over 50 µM. It also gave a GI50 [10] of 1.91 µM and a TGI [10] of over 50 µM.

`Cc1ccc(/C=C(\C#N)c2ccccc2)cc1` gave a TGI [1] of over 100 µM, a TGI [2] of over 100 µM and a TGI [4] of over 100 µM. It also gave a TGI [5] of over 100 µM, a TGI [6] of over 100 µM and a TGI [7] of over 100 µM. For the same molecule, the TGI [8] was over 100 µM and the TGI [10] was over 100 µM.

For `CN1CCN(Cc2ccc(NC(=O)c3cncc(C#Cc4cnn5ccccc45)c3)cc2C(F)(F)F)CC1`, the GI50 [1] was 0.821 µM, the TGI [1] was 1.89 µM and the GI50 [2] was 1.17 µM. The TGI [2] was 3.39 µM, the GI50 [3] was 0.786 µM and the TGI [3] was 2 µM. For the same molecule, the GI50 [4] was 0.893 µM, the TGI [4] was 1.81 µM and the GI50 [5] was 0.873 µM. It also gave a TGI [5] of 3.72 µM, a GI50 [6] of 0.891 µM and a TGI [6] of 2.02 µM. It also gave a GI50 [7] of 1.06 µM, a TGI [7] of 4.15 µM and a GI50 [8] of 0.358 µM. For the same molecule, the TGI [8] was 3.56 µM, the GI50 [9] was 1.58 µM and the TGI [9] was 5.03 µM. For the same molecule, the GI50 [10] was 0.291 µM and the TGI [10] was 1.05 µM.

In the case of `C=C1C(=O)OC2CC3(C)CCCC(C)C3=CC12` (centres undefined), the TGI [1] is reported as 18.7 µM, the TGI [2] is reported as 12.5 µM and the TGI [3] is reported as 24.3 µM. The TGI [4] was 11.2 µM, the TGI [5] was 10.4 µM and the TGI [6] was 28.5 µM. It also gave a TGI [7] of 22.2 µM, a TGI [8] of 9.04 µM and a TGI [9] of 25.8 µM. For the same molecule, the TGI [10] was 2.56 µM.

Work on `COC(=O)c1ccc2c(c1)c1c(C)c3ccncc3c(C)c1n2C` yielded a GI50 [1] of 0.583 µM, a TGI [1] of 13.7 µM and a GI50 [2] of 0.0717 µM. For the same molecule, the TGI [2] was 77.5 µM, the GI50 [3] was 0.274 µM and the TGI [3] was 36.2 µM. It also gave a GI50 [4] of 0.104 µM, a TGI [4] of 15.9 µM and a GI50 [5] of 0.0519 µM. For the same molecule, the TGI [5] was over 100 µM, the GI50 [6] was 0.75 µM and the TGI [6] was 31.6 µM. For the same molecule, the GI50 [7] was 0.322 µM, the TGI [7] was over 100 µM and the GI50 [8] was 0.0992 µM. The TGI [8] was 44.7 µM, the GI50 [9] was 0.206 µM and the TGI [9] was over 100 µM. It also gave a GI50 [10] of 0.113 µM and a TGI [10] of over 100 µM.

With `COCOCC[C@@H]1CC=CC(NC(=O)OCc2ccccc2)C1/C=C/C(=O)CCC1OCCO1` (some centres undefined) the TGI [1] was over 100 µM, the TGI [2] was over 100 µM and the TGI [3] was over 100 µM. For the same molecule, the TGI [4] was over 90 µM, the TGI [5] was over 100 µM and the TGI [6] was over 76.5 µM. The TGI [7] was 70.6 µM, the TGI [8] was 43.4 µM and the TGI [9] was over 100 µM. It also gave a TGI [10] of 37.9 µM.

For `COC(=O)C(C(=O)C(=O)Nc1ccc(OC)cc1[N+](=O)[O-])c1nc2cc(C)c(C)cc2[nH]c1=O` (centres undefined), the TGI [1] was over 100 µM, the TGI [2] was over 100 µM and the TGI [3] was over 100 µM. For the same molecule, the TGI [4] was over 100 µM, the TGI [5] was over 100 µM and the TGI [7] was over 100 µM. It also gave a TGI [9] of over 100 µM and a TGI [10] of over 100 µM.

In the case of `CC[C@@H](C)Nc1cc(C(=O)NC2CC3CCC(C2)N3c2ccc(C(=O)C3CC3)cn2)c(C)cc1C(N)=O` (some centres undefined), the GI50 [1] is reported as 0.103 µM, the TGI [1] is reported as over 100 µM and the GI50 [2] is reported as 0.0479 µM. It also gave a TGI [2] of over 100 µM, a GI50 [4] of 0.192 µM and a TGI [4] of over 100 µM. It also gave a GI50 [5] of 0.0441 µM, a TGI [5] of over 100 µM and a GI50 [6] of 0.0661 µM. For the same molecule, the TGI [6] was 19 µM, the GI50 [7] was 0.0669 µM and the TGI [7] was over 100 µM. It also gave a GI50 [8] of 0.0374 µM, a TGI [8] of 31 µM and a GI50 [9] of 0.0604 µM. It also gave a TGI [9] of over 100 µM, a GI50 [10] of 0.0182 µM and a TGI [10] of 11.6 µM.

In the case of `CCc1nc2cc(/C=C/C(=O)NO)ccc2c(=O)n1CCc1ccc(F)cc1`, the GI50 [1] is reported as 1.1 µM, the TGI [1] is reported as 2.77 µM and the GI50 [2] is reported as 1.41 µM. For the same molecule, the TGI [2] was 3.11 µM, the GI50 [3] was 2.44 µM and the TGI [3] was 7.21 µM. For the same molecule, the GI50 [5] was 1.5 µM, the TGI [5] was 3.27 µM and the GI50 [6] was 2.9 µM. For the same molecule, the TGI [6] was 6.59 µM, the GI50 [7] was 1.31 µM and the TGI [7] was 2.91 µM. For the same molecule, the GI50 [8] was 1.79 µM, the TGI [8] was over 100 µM and the GI50 [9] was 1.82 µM. The TGI [9] was 5.34 µM, the GI50 [10] was 1.26 µM and the TGI [10] was 3.65 µM.

`C1CCN2CC3CCCN4CCCC(C2C1)C34` (centres undefined) was tested, and the TGI [1] was over 100 µM, the TGI [3] was over 100 µM and the TGI [4] was over 100 µM. The TGI [5] was over 100 µM, the TGI [6] was over 100 µM and the TGI [7] was over 100 µM. It also gave a TGI [8] of over 100 µM, a TGI [9] of over 100 µM and a TGI [10] of over 100 µM.

Work on `CCCN1C(=O)/C(=C/c2ccc(O)cc2)SC1=Nc1ccc(OC)cc1` yielded a GI50 [1] of 9.61 µM, a TGI [1] of 22.7 µM and a GI50 [2] of 25.7 µM. The TGI [2] was over 100 µM, the GI50 [3] was 12.3 µM and the TGI [3] was 27.9 µM. For the same molecule, the GI50 [4] was 17.8 µM, the TGI [4] was 46.1 µM and the GI50 [5] was 12.7 µM. For the same molecule, the TGI [5] was 25.3 µM, the GI50 [6] was 37.1 µM and the TGI [6] was over 100 µM. The GI50 [7] was 12.5 µM, the TGI [7] was 26 µM and the GI50 [8] was 10.7 µM. It also gave a TGI [8] of over 100 µM, a GI50 [9] of 19.6 µM and a TGI [9] of 45.5 µM. It also gave a GI50 [10] of 36.6 µM and a TGI [10] of over 100 µM.

Work on `O=c1c(-c2ccc(O)cc2)coc2cc(OC3OC(CO)C(O)C(O)C3O)cc(O)c12` (centres undefined) yielded a TGI [1] of over 100 µM, a TGI [2] of over 100 µM and a TGI [3] of over 100 µM. For the same molecule, the GI50 [4] was over 10 µM, the TGI [4] was over 100 µM and the GI50 [5] was over 10 µM. For the same molecule, the TGI [5] was over 100 µM, the GI50 [6] was over 100 µM and the TGI [6] was over 100 µM. For the same molecule, the GI50 [7] was over 100 µM, the TGI [7] was over 100 µM and the GI50 [8] was over 10 µM. The TGI [8] was over 100 µM, the TGI [9] was over 100 µM and the GI50 [10] was over 100 µM. The TGI [10] was over 100 µM.

`CC(C)(C)c1ccc(O)c(CN(Cc2cc(C(C)(C)C)ccc2O)C2CCCCC2)c1` was tested, and the TGI [1] was 31 µM, the TGI [2] was 99.9 µM and the TGI [3] was over 63.7 µM. The TGI [4] was 51.3 µM, the TGI [5] was 37.4 µM and the TGI [6] was 35.4 µM. It also gave a TGI [7] of 30.4 µM, a TGI [8] of 49.8 µM and a TGI [9] of 41 µM. For the same molecule, the TGI [10] was 6.81 µM.

Work on `Cc1nc(Nc2ccccc2)sc1C(=O)CC(=O)C(=O)NC12CC3CC(CC(C3)C1)C2` yielded a TGI [2] of over 100 µM, a TGI [3] of 73 µM and a TGI [4] of over 100 µM. The TGI [5] was over 100 µM, the TGI [6] was over 100 µM and the TGI [7] was over 100 µM. It also gave a TGI [8] of over 100 µM, a TGI [9] of over 100 µM and a TGI [10] of over 100 µM.

`NNC(=O)N/N=C1\C(=O)N(c2nccs2)C(=O)C(=O)C1c1nc2ccccc2s1` (centres undefined) was tested, and the TGI [2] was over 100 µM, the TGI [3] was over 100 µM and the TGI [4] was over 100 µM. The TGI [5] was over 100 µM, the TGI [6] was over 100 µM and the TGI [7] was over 100 µM. The TGI [9] was over 100 µM and the TGI [10] was over 100 µM.

Reference: PubChem BioAssay (NCI)
